From patent US8338335B2, “Synergistic herbicidal composition containing fluroxypyr and penoxsulam, halosulfuron-methyl, imazamox or imazethapyr” (Dow Agrosciences, LLC, priority 2009, dated 2012) come the findings set out here.

Several values for one entry are separate records, joined by “and”; a condition that tells them apart may be missing. Identical values can stand only once.

For series [1], the system named is Plantago lanceolata, PLALA; narrow-leaved plantain. The series is described as follows: Postemergence herbicidal activity of mixtures in the field, PLALA. It is filed as in vivo. As to the method: (§1) Field trials were conducted in rice and turf using standard herbicide small plot research methodology. Plots varied from 3×3 meter (m) to 3×10 m (width×length) with 4 replicates per treatment. The rice crop was grown using normal cultural practices for fertilization, seeding, watering, flooding and maintenance to ensure good growth of the crop and the weeds. The turf crop was a permanent established crop of centipedegrass that was grown and maintained under normal cultural practices for fertilization, watering, mowing and disease maintenance to ensure good growth of the crop and the weeds.
(§2) All treatments in the field trials were applied using a carbon dioxide (CO2) backpack sprayer calibrated to apply 187 L/ha spray volume. Commercially available products of penoxsulam and fluoroxypyr-meptyl were mixed in water at appropriately formulated product rates to achieve the desired rates based on a unit area of application (hectare) to achieve the desired rates as shown. Treatments were rated at 7 to 33 days after application as compared to the untreated control plants. Visual weed control was scored on a scale of 0 to 100 percent where 0 corresponds to no injury and 100 corresponds to complete kill. […]

Series [2] deals with Sesbania exaltata, SEBEX; Hemp sesbania. The series is described as follows: Postemergence herbicidal activity of mixtures in the field, SEBEX. In kind it is in vivo. How it is done:
as §1, §2

In series [3] the test system is Scirpus juncoides (SCPJU); Japanese bulrush. The series is described as follows: Postemergence herbicidal activity of mixtures in the greenhouse, SCPJU. It is filed as in vivo. How it is done: (§3) Seeds of the desired test plant species were planted in 80% mineral soil/20% grit planting mixture, which typically has a pH of 7.2 and an organic matter content of about 2.9 percent, in plastic pots with a surface area of 128 square centimeters (cm^2). The growing medium was steam sterilized. The plants were grown for 7-19 days in a greenhouse with an approximate 14-hour (h) photoperiod which was maintained at about 29° C. during the day and 26° C. during the night. Nutrients and water were added on a regular basis and supplemental lighting was provided with overhead metal halide 1000-Watt lamps as necessary. The plants were treated with postemergence foliar applications when they reached the third to fourth true leaf stage. All treatments were applied using a randomized complete block trial design, with 4 replications per treatment.
Treatments consisted of the compounds as listed in Tables 1, 3, 5 and 6, each compound applied alone and in combination. […]
(§4) The treated plants and control plants were placed in a greenhouse as described above and watered by sub-irrigation to prevent wash-off of the test compounds. […] Visual weed control was scored on a scale of 0 to 100 percent where 0 corresponds to no injury and 100 corresponds to complete kill. […]

Series [4] has as its system Leptochloa chinensis (LEFCH); Chinese sprangletop. Nature of the series: Postemergence herbicidal activity of mixtures in the greenhouse, LEFCH. In kind it is in vivo. The conditions noted are these: 21 DAA. As to the method:
as §3
(§5) Treatments consisted of the compounds as listed in Tables 1, 3, 5 and 6, each compound applied alone and in combination. Formulated amounts of penoxsulam, halosulfuron-methyl, imazamox and fluoroxypyr-meptyl ester, were placed in 60 milliliter (mL) glass vials and dissolved in a volume of 60 mL of a water solution containing Agri-dex crop oil concentrate in a 1% volume per volume (v/v) ratio. Compound requirements are based upon a 12 mL application volume at a rate of 187 liters per hectare (L/ha). Spray solutions of the mixtures were prepared by adding the stock solutions to the appropriate amount of dilution solution to form 12 mL spray solution with active ingredients in single and two way combinations. Formulated compounds were applied to the plant material with an overhead Mandel track sprayer equipped with 8002E nozzles calibrated to deliver 187 L/ha at a spray height of 18 inches (43 centimeters (cm)) above average plant canopy.
as §4

Series [5] relates to Brachiaria platyphylla (BRAPP); broadleaf signalgrass. Nature of the series: Postemergence herbicidal activity of mixtures in the greenhouse, BRAPP. It is filed as in vivo. The conditions noted are these: 21 DAA. As to the method: as §3, §5
(§6) The treated plants and control plants were placed in a greenhouse as described above and watered by sub-irrigation to prevent wash-off of the test compounds. Treatments were rated at 7 to 21 days after application (DAA) as compared to the untreated control plants. Visual weed control was scored on a scale of 0 to 100 percent where 0 corresponds to no injury and 100 corresponds to complete kill.
(§7) Colby's equation was used to determine the herbicidal effects expected from the mixtures (Colby, S. R. Calculation of the synergistic and antagonistic response of herbicide combinations. Weeds 1967, 15, 20-22).
(§8) The following equation was used to calculate the expected activity of mixtures containing two active ingredients, A and B: Expected=A+B−(A×B/100)

The subject of series [6] is Caperonia palustris, CNPPA; Texasweed. Nature of the series: Postemergence herbicidal activity of mixtures in the field, CNPPA. It is filed as in vivo. As to the method:
as §1
All treatments in the field trials were applied using a carbon dioxide (CO2) backpack sprayer calibrated to apply 187 L/ha spray volume. Commercially available products of penoxsulam and fluoroxypyr-meptyl were mixed in water at appropriately formulated product rates to achieve the desired rates based on a unit area of application (hectare) to achieve the desired rates as shown. Treatments were rated at 7 to 33 days after application as compared to the untreated control plants. Visual weed control was scored on a scale of 0 to 100 percent where 0 corresponds to no injury and 100 corresponds to complete kill.
as §7, §8

Series [7] deals with Sunflower (HELAN). Nature of the series: Crop injury (safening) in the field, sunflower. It is filed as in vivo, Helianthus annuus. The conditions noted are these: Fluroxypyr-meptyl 100 g ae/ha alone.
The test system of series [8] is Leptochloa spp, LEFSS; sprangletop. The series is described as follows: Postemergence herbicidal activity of mixtures in the field, LEFSS. It is filed as in vivo. As to the method:
as §1
All treatments in the field trials were applied using a carbon dioxide (CO2) backpack sprayer calibrated to apply 187 L/ha spray volume. […] Treatments were rated at 7 to 33 days after application as compared to the untreated control plants. Visual weed control was scored on a scale of 0 to 100 percent where 0 corresponds to no injury and 100 corresponds to complete kill.
as §7, §8

The test system of series [9] is Panicum dichotomiflorum, PANDI; fall panicum. The series is described as follows: Postemergence herbicidal activity of mixtures in the field, PANDI. It is filed as in vivo. As to the method: as §1, §2
Series [10] deals with Echinochloa crus-galli (ECHCG); barnyardgrass. The series is described as follows: Postemergence herbicidal activity of mixtures in the greenhouse, ECHCG. It is filed as in vivo. How it is done: as §3, §5, §6, §7, §8
For series [11], the system named is Cyperus esculentus (CYPES); yellow nutsedge. Nature of the series: Postemergence herbicidal activity of mixtures in the greenhouse, CYPES. It is filed as in vivo. The conditions noted are these: 21 DAA. How it is done:
as §3, §5, §6, §7, §8

Series [12] concerns Centipedegrass (ERLOP). The series is described as follows: Crop injury (safening) in the field, centipedegrass. In kind it is in vivo, Eremochloa ophiuroides. As to the method: as §1, §2
Setting [13] is: Fluroxypyr-meptyl 97 g ae/ha alone.
Where [14] appears, read: Fluroxypyr-meptyl 200 g ae/ha alone.
Setting [15] is: Fluroxypyr-meptyl 290 g ae/ha alone.
The mark [16] stands for this setting: Halosulfuron-methyl 4.4 g ai/ha alone.
Setting [17] is: Halosulfuron-methyl 18 g ai/ha alone.

Turning to `CCCCCCC(C)OC(=O)COc1nc(F)c(Cl)c(N)c1Cl` (centres unmarked) [Fluroxypyr-meptyl, fluoroxypyr-meptyl ester], the “% Control PLALA Ob” value in series [1] (Fluroxypyr-meptyl 140 g ae/ha alone) is 0%. The “% Control SEBEX Ob” value in series [2] (setting [13]) is reported as 57%. In addition, the “% Control SCPJU Ob” value in series [3] (Fluroxypyr-meptyl 70 g ae/ha alone) is on record as 60%. Further, the “% Control LEFCH Ob” value in [4] (setting [14]) is given as 15%. Further, the “% Control BRAPP Ob” value is 10% in series [5] (Fluroxypyr-meptyl 50 g ae/ha alone), 23% in series [5] (Fluroxypyr-meptyl 100 g ae/ha alone) and 20% in series [5] (setting [14]). The “% Control CNPPA Ob” value is 45% in series [6] (setting [13]) and 60% in series [6] (setting [15]). The “% Injury HELAN Ob” value in series [7] is 31% and 34%. Moreover, the “% Control LEFSS Ob” value in series [8] (setting [15]) is listed as 0%. Also, the “% Control PANDI Ob” value in [9] (setting [15]) is listed as 0%. Moreover, the “% Control ECHCG Ob” value worked out at 6% in series [10] (Fluroxypyr-meptyl 50 g ae/ha alone, 21 DAA, Table 5); 1.3% in series [10] (Fluroxypyr-meptyl 50 g ae/ha alone, 21 DAA, Table 6); 2% in [10] (Fluroxypyr-meptyl 100 g ae/ha alone, 21 DAA, Table 5); 4% in series [10] (Fluroxypyr-meptyl 100 g ae/ha alone, 21 DAA, Table 6); 11% in series [10] (Fluroxypyr-meptyl 200 g ae/ha alone, 21 DAA, Table 5); 6% in series [10] (Fluroxypyr-meptyl 200 g ae/ha alone, 21 DAA, Table 6). Further, in series [10] (Fluroxypyr-meptyl 340 g ae/ha alone, Table 1), the “% Control ECHCG Ob” value is recorded as 0%. Besides, the “% Control CYPES Ob” value in series [11] (Fluroxypyr-meptyl 50 g ae/ha alone, Table 5) amounted to 1%; in series [11] (Fluroxypyr-meptyl 100 g ae/ha alone, Table 5), 3%; in series [11] (Fluroxypyr-meptyl 100 g ae/ha alone, Table 6), 10%; in series [11] (Fluroxypyr-meptyl 200 g ae/ha alone, Table 5), 8%; in series [11] (Fluroxypyr-meptyl 200 g ae/ha alone, Table 6) it was 9%. In [12] (Fluroxypyr-meptyl 210 g ae/ha alone, field), the “% Injury ERLOP Ob” value is 6%.

For the compound `COC(=O)c1c(Cl)nn(C)c1S(=O)(=O)NC(=O)Nc1nc(OC)cc(OC)n1` [Halosulfuron-methyl, methyl 3-chloro-5-[[[[(4,6-dimethoxy-2-pyrimidinyl)amino]carbonyl]amino]sulfonyl]-1-methyl-1H-pyrazole-4-carboxylate], the “% Control LEFCH Ob” value in series [4] (setting [16]) was found to be 2%; in series [4] (setting [17]) it was 8%. Also, the “% Control ECHCG Ob” value in [10] (Halosulfuron-methyl 8.8 g ai/ha alone, 21 DAA) worked out at 3%; in series [10] (Halosulfuron-methyl 18 g ai/ha alone, 21 DAA), 6%. In addition, the results for the “% Control CYPES Ob” value in [11] (setting [16]), in series [11] (Halosulfuron-methyl 8.8 g ai/ha alone) and in series [11] (setting [17]) were 68%, 73% and 78%, respectively.

With `COCc1cnc(C2=NC(C)(C(C)C)C(=O)N2)c(C(=O)O)c1` (centres unmarked) [Imazamox, 2-[4,5-dihydro-4-methyl-4-(1-methylethyl)-5-oxo-1H-imidazol-2-yl]-5-(methoxymethyl)-3-pyridinecarboxylic acid], the “% Control BRAPP Ob” value in series [5] (Imazamox 4.4 g ai/ha alone) was 3%; in series [5] (Imazamox 8.8 g ai/ha alone) it was 46%. The “% Control ECHCG Ob” value in series [10] (Imazamox 4.4 g ai/ha alone, 21 DAA) is given as 1.3%; in [10] (Imazamox 8.8 g ai/ha alone, 21 DAA), 29%; in series [10] (Imazamox 18 g ai/ha alone, 21 DAA) it was 85%. Also, the “% Control CYPES Ob” value in [11] (Imazamox 8.8 g ai/ha alone) came out at 8%; in series [11] (Imazamox 18 g ai/ha alone), 42%.

As for `CCc1cnc(C2=NC(C)(C(C)C)C(=O)N2)c(C(=O)O)c1` (centres unmarked) [Imazethapyr, 2-[4,5-dihydro-4-methyl-4-(1-methylethyl)-5-oxo-1H-imidazol-2-yl]-5-ethyl-3-pyridinecarboxylic acid], the “% Control LEFSS Ob” value in series [8] (Imazethapyr 70 g ai/ha alone) is reported as 28%. Further, in series [9] (Imazethapyr 70 g ai/ha alone), the “% Control PANDI Ob” value is 40%.

Turning to `COc1cnc(OC)n2nc(NS(=O)(=O)c3c(OCC(F)F)cccc3C(F)(F)F)nc12` [Penoxsulam, 2-(2,2-difluoroethoxy)-N-(5,8-dimethoxy-[1,2,4]triazolo[1,5-c]pyrimidin-2-yl)-6-(trifluoromethyl)benzenesulfonamide], the “% Control PLALA Ob” value in [1] (Penoxsulam 15 g ai/ha alone) was determined as 13%. For the same compound, the “% Control SEBEX Ob” value in [2] (Penoxsulam 22 g ai/ha alone) was 76%. The “% Control SCPJU Ob” value in series [3] (Penoxsulam 10 g ai/ha alone) was determined as 2%. Moreover, the “% Control CNPPA Ob” value in series [6] (Penoxsulam 35 g ai/ha alone) turned out to be 67%. Also, the “% Control ECHCG Ob” value in [10] (Penoxsulam 15 g ai/ha alone) was 84% and 78% and 62%. Also, the “% Injury ERLOP Ob” value in series [12] (in vivo) stood at 15%.
